Reference: US20100076072A1, “COMPOSITIONS AND METHODS OF VITAMIN E ADMINISTRATION” (NORTHWESTERN UNIVERSITY, priority 2008, published 2010)

What was measured:
[1] = system: OVA-challenged mice (experimental asthma); experiment: OVA experimental asthma: leukocyte infiltration into bronchoalveolar lavage (BAL); type: in vivo, mouse
Description: Reagents. Ethoxylated castor oil was composed of polyethoxylated castor oil (PEG35), 20% ethanol, and 1% benzyl alcohol. […] The purified tocopherols were diluted in ethoxylated castor oil to indicated concentrations for the in vivo studies. The purified tocopherols were diluted in DMSO (0.2%) for the in vitro studies. OVA administration. BALB/c female mice were maintained on chow diet. The mice were sensitized by intraperitoneal injection (200 μl) of OVA grade V (10 μg)/alum or saline/alum on days 0 and 7 (SEE FIG. 1). On days 13-20, these mice received daily subcutaneous injections (50 μl) of 2 μg natural tocopherol/ethoxylated castor oil or ethoxylated castor oil alone. This daily 2 μg of natural tocopherol is equivalent to the amount of tocopherol that mice consume from diets (4 g diet consumed/day×500 mg α-tocopherol/kg diet) that are commonly used to elevate tissue tocopherols in mice. The mice recieved 2 μg d-α-tocopherol, 2 μg d-γ-tocopherol, 2 μg d-α-tocopherol plus 2 μg d-γ-tocopherol or the vehicle exthoxylated castor oil. […] During the OVA responses in mice, tocopherol radicals are recycled by endogenously synthesized ascorbic acid. On days 16, 18, and 20, the mice were challenged with intranasal OVA fraction VI (150 μg) in saline or saline alone. On day 21, the mice were analyzed for airway responsiveness followed by collection of tissues.
(§1) Tissue collection. After airway function analysis, mice were weighed, sacrificed and the lungs flushed twice with 0.8 ml PBS. The cells in this bronchoalveolar lavage (BAL) were cytospun onto slides, DiffQuik (Baxter) stained, and differential cell counts were performed. BAL supernatants were snap frozen and stored at −80° C. for cytokine analysis. Lungs were perfused free of blood and one quarter of the lung was tied off, collected, weighed, snap frozen, and stored at −80° C. for tocopherol analysis and PGE2 analysis. One quarter of the lung was collected and placed in RNA later for analysis of mRNA for eotaxin expression. The other half of the lung was injected with 40% freezing compound, collected and stored at −80° C. for tissue sections and histological staining Frozen sections were prepared rather than paraffin sections since the anti-mouse VCAM-1 antibodies only bind to VCAM-1 in frozen sections.
(§2) Mice were sensitized with intraperitoneal injection of OVA grade V (10 μg)/alum or saline/alum on days 0 and 7 (SEE FIG. 2). On days 13-20, these mice received daily subcutaneous injections (500) of 2 μg natural tocopherol/ethoxylated castor oil (33) or ethoxylated castor oil alone. This daily 2 μg of natural tocopherol is equivalent to the amount of tocopherol that mice consume from diets (4 g diet consumed/day×500 mg a tocopherol/kg diet) that are commonly used to elevate tissue tocopherols in mice. On days 16, 18, and 20 the mice were challenged with intranasal OVA fraction VI (150 μg) in saline or saline alone. On day 21, the mice were analyzed for airway responsiveness and then tissues were collected. Lung responsiveness was determined using methacholine and whole-body plethysmography as previously described. This method of measuring lung function has the advantage of analysis of larger numbers of animals, as compared to the few animals that can be analyzed using invasive measures of lung function. The whole-body plethysmography correlates well with airway function when performed under continuous flow conditions. This measurement under continuous flow is critical as it avoids the complication of airway conditioning that occurs if these measurements are incorrectly made under closed conditions. After airway analysis, mice were sacrificed and tissues collected.

[2] = system: OVA-challenged mice (experimental asthma); experiment: OVA experimental asthma: lung tissue eosinophils (anti-major basic protein immunolabeling); type: in vivo, mouse; conditions: daily s.c. 2 μg tocopherol days 13-20, day 21
[3] = system: OVA-challenged mice (experimental asthma); experiment: Airway hyperresponsiveness to methacholine, whole-body plethysmography (Penh); type: in vivo, mouse; conditions: for Airway hyperresponsiveness (AHR), enhanced pause (Penh): OVA-challenged BALB/c mice, methacholine dose curve, day 21
Description: Airway Hyperresponsiveness. Lung responsiveness was determined using methacholine as previously described. On day 21, the mice were analyzed for airway responsiveness by whole body plethysmology. The whole-body plethysmography on conscious, unrestrained mice was performed under continuous airflow conditions (Buxco, Troy, N.Y.). Continuous airflow was used to avoid the influence of conditioning on airway functions, causing aberrant measurements. Enhanced pause (Penh) values were calculated from the flow-derived whole-body plethysmography measurements done with continuous air flow. Penh is a unitless indicator of changes in airway resistance and correlates well with specific airway resistance. Baseline readings were averaged for 5 minutes. Saline or methacholine was nebulized into the airflow for 2-minute periods and the average Penh value calculated for this and the subsequent 8 minutes.
as §2, with “This measurement under continuous flow is critical as it avoids the complication of airway conditioning that occurs if these measurements are incorrectly made under closed conditions. After airway analysis, mice were sacrificed and tissues collected.” left out

[4] = Body and lung weights on day 21; type: in vivo, mouse; conditions: mice, day 21, daily s.c. tocopherol days 13-20
Description: as §1
Body weight and tocopherol levels in these mice were examined. […] Consistent with this, the body weight and lung weights of the mice studied during the development of embodiments of the present invention were unaltered by the α-tocopherol or γ-tocopherol treatments (SEE FIG. 3). Lungs were perfused to remove the blood, homogenized in ethanol and extracted with hexane. Tocopherol concentrations were determined by HPLC with an electrochemical detector. The lung tissue and plasma levels of tocopherols were elevated (SEE FIG. 4). […] The level of γ-tocopherol in the lung tissue of γ-tocopherol-treated mice was 10 fold lower than lung tissue α-tocopherol in the α-tocopherol-treated mice. This 10 fold difference in α-tocopherol and γ-tocopherol levels in the lung tissues may be caused preferential transfer of α-tocopherol in the liver by a TTP (20, 24), although the present invention is not limited to any particular mechanism of action and an understanding of the mechanism of action is not necessary to practice the present invention. […] Administration of tocopherols also had no effect on the low levels of δ-tocopherol in the lung (SEE FIG. 4A).

[5] = Tocopherol levels in lung tissue and plasma (HPLC, electrochemical detector); type: in vivo, mouse; conditions: for Lung tissue level of the other tocopherol (α vs γ) / Lung tissue level of the administered tocopherol: mice; for Lung tissue level of the administered tocopherol: day 21, daily s.c. 2 μg tocopherol days 13-20
Description: Body weight and tocopherol levels in these mice were examined. […] Lungs were perfused to remove the blood, homogenized in ethanol and extracted with hexane. Tocopherol concentrations were determined by HPLC with an electrochemical detector.

[6] = system: VCAM-1-dependent spleen cell migration across mHEVa endothelial cells; experiment: In vitro Transwell migration assay; type: cell-based, mouse; conditions: for Migration after pretreatment of leukocytes with tocopherol and washing: leukocytes pretreated, washed; for Lymphocyte migration in transwell migration assay: tocopherol left in culture, 24 hours after addition of spleen cells, 80 μM α / 5 μM γ
Description: In vitro Transwell migration assay. mHEVa cells were grown to confluence on Transwells with 12 μm pores (Costar Cambridge, Mass.). The mHEVc cell monolayers block nonspecific accumulation of red blood cells in the lower transwell chamber and block FITC-albumin diffusion. Spleen cell migration is stimulated by mHEV cell secretion of the chemokine MCP-1. The number of lymphocytes that migrate is linear from 0-24 hrs followed by a plateau. Spleen cells that migrate are greater than 95% lymphocytes and the percentage of cells that migrate is consistent with other in vitro models with endothelial cell lines or cytokine-activated microvascular endothelial cells.
In this transendothelial migration assay used, the migrated spleen cells are >95% lymphocytes and the B cells and T cells migrate in response to MCP-1. […]

[7] = system: VCAM-1-dependent lymphocyte migration across mHEVa endothelial cells; experiment: Transendothelial migration assay with physiological laminar flow (parallel plate flow chamber); type: cell-based, mouse; conditions: endothelial cells pretreated overnight, washed; 15 minutes, 2 dynes/cm^2
Description: In vitro cell association and migration assays with laminar flow. The parallel plate flow chamber was used to examine migration under conditions of laminar flow. Endothelial cells were grown to confluence on slides and then the slide was placed in a parallel plate flow chamber. In vivo, in the absence of inflammation, the rapid fluid dynamics of the blood result in blood cells located midstream of the vascular flow. However, during inflammation, there is a change of fluid dynamics. […]
Therefore, spleen cells (3×10^6) were added to the flow chamber (35 cm^2) at 2 dynes/cm^2. […] To initiate spleen cell contact with the endothelial cells in vitro, the spleen cells were allowed to settle in the chamber as monitored by microscopy and then 2 dynes/cm^2 was applied for the 15 minute laminar flow assay. […] To quantify migrated spleen cells at 15 minutes, phase contrast microscopy was used to count migrated cells that are phase dark. Under laminar flow, spleen cell migration was detected at 15 minutes. The number of spleen cells that were associated but not migrated (phase light cells) at 15 minutes is low since in 15 minutes, the majority of non-migrating cells roll off the monolayer of endothelial cells as determined by microscopy. […]

PKCα = molecular target: T1, PKCα (Mus musculus, UniProt P20444); experiment: VCAM-1 activation of endothelial cell PKCα (PKCα-Thr638 phosphorylation, western blot); type: cell-based; conditions: overnight 80 μM α-tocopherol / 2 μM γ-tocopherol; anti-VCAM-1 stimulation 10 minutes
T1 construct: endogenous in cells; host or cells: endothelial cells (mHEVa named)
Description: Endothelial cells were pretreated overnight with physiological concentrations of tocopherols (80 μM α-tocopherol and/or 2 μM γ-tocopherol). Endothelial cell VCAM-1 was stimulated with anti-VCAM-1 and a secondary antibody for 10 minutes. Phosphorylation of PKCα-Thr^638 was examined by western blot, developed using an ECL kit, and analyzed by densitometry as in the methods section. These concentrations of α-tocopherol (80 μM) and γ-tocopherol (2 μM) were optimal for their inhibition or enhancement, respectively, of VCAM-1 activation of PKCα (data not shown). Shown are representative blots and data from 5 experiments. *, p<0.05 compared to nonstimulated groups. **, p<0.05 compared to nonstimulated groups and p<0.07 compared to DMSO-treated/anti-VCAM-stimulated group.

[8] = system: endotoxin-stimulated neutrophil infiltration into the lung; conditions: other animal models; cited from earlier work
[9] = system: delayed-type-hypersensitivity responses; conditions: in vivo; cited from earlier work
lung = conditions: in vivo; cited from earlier work
[10] = system: adhesion molecule expression; conditions: atherosclerosis models; cited from earlier work
arthritis = experiment: Arthritis
[11] = in vivo; cited from earlier work
[12] = OVA-challenged BALB/c mice, daily s.c. 2 μg tocopherol days 13-20, day 21, vs OVA-challenged vehicle
[13] = OVA-challenged mice, co-treatment with α-tocopherol

| SMILES | OVA-stimulated infiltration of eosinophils into the BAL [1, 12] | OVA-stimulated infiltration of lymphocytes into the BAL [1, 12] | OVA-stimulated infiltration of monocytes into the BAL [1, 12] | Eosinophils in the lung tissue [2] | Airway hyperresponsiveness (AHR), enhanced pause (Penh) [3] | Body weight [4] | Lung weights [4] | Lung tissue level of the other tocopherol (α vs γ) ([5]; day 21) | Lung tissue level of the administered tocopherol [5] | Migration after pretreatment of leukocytes with tocopherol and washing [6] | Lymphocyte migration in transwell migration assay [6] | VCAM-1 activation of PKCα (phosphorylation of PKCα-Thr638) (PKCα) | further results |
| --- | --- | --- | --- | --- | --- | --- | --- | --- | --- | --- | --- | --- | --- |
| Cc1c(C)c2c(c(C)c1O)CC[C@@](C)(CCC[C@H](C)CCC[C@H](C)CCCC(C)C)O2 [α-tocopherol, d-α-tocopherol, reference compound] | significantly reduced | significantly reduced | significantly reduced | reduced | completely ablated | unaltered | unaltered | did not alter | elevated levels | no effect on migration | inhibited lymphocyte migration | inhibition | Increase in α-tocopherol in lungs of α-tocopherol-treated mice ([5]; day 21): five-fold increase; VCAM-1-dependent lymphocyte migration under laminar flow [7]: inhibited; Endotoxin-stimulated neutrophil infiltration into the lung [8]: reduces; Delayed-type-hypersensitivity responses [9]: reduces; High oxidation by ozone and smoke in the lung (lung): reduces; Adhesion molecule expression [10]: inhibit |
| Cc1c(O)cc2c(c1C)O[C@](C)(CCC[C@H](C)CCC[C@H](C)CCCC(C)C)CC2 [γ-tocopherol, d-γ-tocopherol] | significantly increased | significantly increased | significantly increased | elevated | elevated | unaltered | unaltered | did not alter | elevated levels | no effect on migration | significantly increases lymphocyte migration | enhancement | OVA-stimulated infiltration of neutrophils into the BAL [1, 12]: significantly increased; Effect on the benefit of α-tocopherol (BAL leukocyte infiltration) [1, 13]: blocked the benefit of α-tocopherol; Effect on α-tocopherol inhibition of AHR [3, 13]: antagonized the inhibition by α-tocopherol; Lung tissue γ-tocopherol in γ-tocopherol-treated mice relative to lung tissue α-tocopherol in α-tocopherol-treated mice ([5]; day 21): 10 fold lower; Effect on α-tocopherol inhibition of spleen cell migration ([6]; 5 μM γ-tocopherol with α-tocopherol (80 μM)-treated cells): ablated; Lymphocyte migration after pretreatment of endothelial cells ([6]; endothelial cells pretreated, washed five times, transwell assay): elevated lymphocyte migration; Effect on arthritis (arthritis): exacerbatory effect; Retention in tissues relative to α-tocopherol [11]: 10% |
